{"source": "patent US20170142962A1", "about": "“METHODS AND SOLUTIONS INCLUDING ADDITIVES AND STABILIZERS FOR KILLING OR DEACTIVATING SPORES” (EP Technologies LLC, priority 2015, published 2017)", "key": {"C. diff spores [1]": {"tested_on": "C. diff spores", "assay": "Example 1: direct DBD plasma treatment of EtOH, H2O2 or water solutions on spore-containing discs with soil", "type": "cell-based, Clostridium difficile", "conditions": "DBD 30 seconds, 35% EtOH, 70% EtOH, 3% H2O2", "experimental": "In the following examples, various treatments were applied to measure the ability of plasma-activated liquids containing various additives to kill or deactivate spores from C. diff bacteria. Briefly, a volume of 10 μl of C. diff spores in sterile water (containing approximately 10^8 colony forming units (CFUs)/ml) was added onto a sterile stainless steel disc and left to dry for 30 minutes. The contaminated surfaces were then exposed to a treatment described below. After treatment, the killing or deactivation capacity of the treatment was measured by estimating the number of surviving CFUs. Estimation of surviving CFUs was determined by placing the disc in test tubes filled with a neutralizer. The test tubes were sonicated for 1 minute and vortexed for 15 seconds to fully remove spores from the surfaces. The neutralizer solution containing spores was diluted and plated on Brain Heart Infusion Agar supplemented with 0.1% Sodium Taurocholate (BHIT). The agar plates were incubated under anaerobic conditions for 36-48 hours at 37° C. CFUs were estimated based on colony counts on the agar plates following incubation. A direct plasma treatment (as shown in FIG. 1) with DBD was used for the testing. The direct DBD was created by an AC sinusoidal voltage power supply with a power scale at 15 (approximately 20 kV peak-to-peak) and a driving frequency of 20.5 kHz. […]"}, "C. diff spores [2]": {"tested_on": "C. diff spores", "assay": "Example 2: direct DBD plasma treatment of differing EtOH concentrations on spore-containing discs with soil", "type": "cell-based, Clostridium difficile", "conditions": "12 μl, DBD 30 seconds", "experimental": "In the following examples, various treatments were applied to measure the ability of plasma-activated liquids containing various additives to kill or deactivate spores from C. diff bacteria. Briefly, a volume of 10 μl of C. diff spores in sterile water (containing approximately 10^8 colony forming units (CFUs)/ml) was added onto a sterile stainless steel disc and left to dry for 30 minutes. The contaminated surfaces were then exposed to a treatment described below. After treatment, the killing or deactivation capacity of the treatment was measured by estimating the number of surviving CFUs. Estimation of surviving CFUs was determined by placing the disc in test tubes filled with a neutralizer. The test tubes were sonicated for 1 minute and vortexed for 15 seconds to fully remove spores from the surfaces. The neutralizer solution containing spores was diluted and plated on Brain Heart Infusion Agar supplemented with 0.1% Sodium Taurocholate (BHIT). The agar plates were incubated under anaerobic conditions for 36-48 hours at 37° C. CFUs were estimated based on colony counts on the agar plates following incubation. A direct plasma treatment (as shown in FIG. 1) with DBD was used for the testing. […] The gap distance between the plasma reactor and the disc was 2 mm."}, "C. diff spores [3]": {"tested_on": "C. diff spores", "assay": "Example 11: plasma activated wipes used to wipe spore-containing surface", "type": "cell-based, Clostridium difficile", "conditions": "mechanical removal", "experimental": "(§1) In the following examples, various treatments were applied to measure the ability of plasma-activated liquids containing various additives to kill or deactivate spores from C. diff bacteria. Briefly, a volume of 10 μl of C. diff spores in sterile water (containing approximately 10^8 colony forming units (CFUs)/ml) was added onto a sterile stainless steel disc and left to dry for 30 minutes. The contaminated surfaces were then exposed to a treatment described below. After treatment, the killing or deactivation capacity of the treatment was measured by estimating the number of surviving CFUs. Estimation of surviving CFUs was determined by placing the disc in test tubes filled with a neutralizer. The test tubes were sonicated for 1 minute and vortexed for 15 seconds to fully remove spores from the surfaces. The neutralizer solution containing spores was diluted and plated on Brain Heart Infusion Agar supplemented with 0.1% Sodium Taurocholate (BHIT). The agar plates were incubated under anaerobic conditions for 36-48 hours at 37° C. CFUs were estimated based on colony counts on the agar plates following incubation."}, "C. diff spores [4]": {"tested_on": "C. diff spores", "assay": "Example 3: direct DBD plasma treatment of H2O2 or NaNO2 solutions, spore inoculum in PBST", "type": "cell-based, Clostridium difficile", "conditions": "1, 10, 100, 500 mM, 10 μl, DBD 20 seconds, two trials, NaNO2: other than at 10 mM", "experimental": "as §1\nA direct plasma treatment (as shown in FIG. 1) with DBD was used for the testing. […]"}, "[5]": {"conditions": "cited from earlier work"}, "C. diff spores [6]": {"tested_on": "C. diff spores", "assay": "Example 4: direct DBD plasma treatment of acid solutions, spore inoculum in PBST with soil", "type": "cell-based, Clostridium difficile", "conditions": "0.0001% to 10% acid solutions, 3 μl, DBD 20 seconds", "experimental": "as §1\nA direct plasma treatment (as shown in FIG. 1) with DBD was used for the testing. The direct DBD was created by a microsecond pulsed power supply which creates discrete voltage bursts at a repetition rate of 3.5 kHz which consist of decaying sinusoidal waveforms with a frequency of 32 kHz and a peak-to-peak voltage of approximately 20 kV. The gap distance between the plasma reactor and the disc was 2 mm. Spore inoculum for the stainless steel disc was prepared in 1×PBST with soil instead of sterile water. Citric acid, acetic acid, or HCl was added to water to produce 0.0001% to 10% acid solutions. 3 μl of each of these solutions was added to the spore-containing discs. After application, the discs were subjected to DBD treatment for 20 seconds."}, "[7]": {"conditions": "cited from earlier work", "remark": "listed apart in the source"}}, "note": "Where a name gives a salt, the structure may show the parent alone."}
{"smiles": "CCO", "note": "[EtOH, ethanol]", "values": [{"measurement": "kill or deactivation efficiency as additive in the water, versus water alone", "setting": "C. diff spores [1]", "result": "substantially increased the kill or deactivation efficiency"}, {"measurement": "killing or deactivation efficiency with increased concentration", "setting": "C. diff spores [2]", "result": "increasing killing or deactivation efficiency"}, {"measurement": "LR of wipe without plasma activation", "setting": "C. diff spores [3]", "result": "~0.7", "unit": "LR"}]}
{"smiles": "OO", "note": "[H2O2, hydrogen peroxide]", "values": [{"measurement": "kill or deactivation efficiency as additive in the water, versus water alone", "setting": "C. diff spores [1]", "result": "substantially increased the kill or deactivation efficiency"}, {"measurement": "effect of increasing the concentration on killing or deactivation efficiency", "setting": "C. diff spores [4]", "result": "increased the killing or deactivation efficiency"}, {"measurement": "OSHA permissible exposure limit", "setting": "[5]; averaged over an 8-hour work shift", "result": 1, "unit": "ppm"}, {"measurement": "AIHA ERPG-2 maximum airborne concentration", "setting": "[5]; exposure up to an hour without irreversible or serious health effects", "result": 50, "unit": "ppm"}]}
{"smiles": "Cl", "note": "[HCl, hydrochloric acid]", "values": [{"measurement": "killing or deactivation efficiency relative to water alone", "setting": "C. diff spores [6]", "result": "increased the killing or deactivation efficiency"}]}
{"smiles": "O=NO", "note": "[NaNO2, sodium nitrite]", "values": [{"measurement": "effect of increasing the concentration on killing or deactivation efficiency", "setting": "C. diff spores [4]", "result": "did not increase the killing or deactivation efficiency"}]}
{"smiles": "CC(=O)O", "note": "[acetic acid]", "values": [{"measurement": "killing or deactivation efficiency relative to water alone", "setting": "C. diff spores [6]", "result": "increased the killing or deactivation efficiency"}]}
{"smiles": "O=C(O)CC(O)(CC(=O)O)C(=O)O", "note": "[citric acid]", "values": [{"measurement": "killing or deactivation efficiency relative to water alone", "setting": "C. diff spores [6]", "result": "increased the killing or deactivation efficiency"}]}
{"smiles": "O=NOO", "note": "[peroxynitrite]", "values": [{"measurement": "half-life", "setting": "[7]", "result": "around 1 second"}]}
